Measured values taken from patent US11945862B2, “Compositions and methods for antibody production” (ImmunoGen, Inc., priority 2017, dated 2024).
Structures can show the parent of a compound that is named as a salt. Where two headings read alike, the source gives them in different places. Each block holds one molecule with its values, some of them ahead of it.

Legend:
[1] = Reactivity of AQS with a model thiol, Ellman's assay of thiol groups; conditions: 1 mM AQS with 1 mM cysteine ethyl ester, PBS, ambient temperature
Procedure: In a separate experiment, the reactivity of anthraquinone-2-sulfonic acid (AQS) with a model thiol (L-cysteine ethyl ester) at ambient temperature was investigated by incubating 1 mM AQS with 1 mM cysteine ethyl ester at ambient temperature in PBS, using Ellman's assay of thiol groups to measure the extent of reaction. At time points of 1 hour, 2 hours, 3 hours, and 4 hours, the percent decrease in thiol values for the 1 mM AQS with 1 mM cysteine ethyl ester mixture versus thiol in a 1 mM cysteine ethyl ester (No AQS) control were 2%, 8%, 12%, and 20%, respectively.

[2] = test system: Humanized FOLR1 IgG1 antibody; experiment: Antibody disulfide reduction by CHO cell lysate (RIPA buffer), thiol per antibody by Ellman's assay; format: biochemical
humanized N901 antibody = experiment: Antibody disulfide reduction by CHO cell lysate (RIPA buffer), thiol/antibody by Ellman's assay; format: biochemical; conditions: for decrease in antibody-disulfide reduction: versus control without agent
Procedure: For all of the examples described below, cell damage was simulated by multiple freeze-thaw cycles of cells, by addition of RIPA buffer (50 mM Tris-HCl, pH 7.4, 1% NP-40, 0.5% sodium deoxycholate, 0.1% sodium dodecylsulfate), or by using microfluidizer. This damaged cell supernatant or lysate was then incubated with a buffered solution containing antibody with or without the anti-reduction agent being tested, following which the extent of the antibody-disulfide reduction was measured using Ellman's assay for thiol (P. W. Riddles, R. L. Blakeley, and B. Zerner, Methods Enzymol., 91, 49-60, 1983) or by non-reducing SDS protein LabChip analysis. The total thiol level present in the mixture of damaged cell supernatant/lysate was measured initially.
The effect of 1,2-naphthoquinone-4-sulfonic acid (NQS) on antibody-disulfide reduction was studied by incubating 1,2-naphthoquinone-4-sulfonic acid at several concentrations with antibody and damaged CHO lysate. The damaged CHO cell lysate was generated by the addition of 0.5 ml RIPA buffer (50 mM Tris-HCl, pH 7.4, 1% NP-40, 0.5% sodium deoxycholate, 0.1% sodium dodecylsulfate) to 100 million CHO cells. The thiol concentration in CHO cell lysate was measured by Ellman's assay as 2.1 mM.
Each sample contained pre-mixed 0.5 ml RIPA buffer (50 mM Tris-HCl, pH 7.4, 1% NP-40, 0.5% sodium deoxycholate, 0.1% sodium dodecylsulfate) with 1 mg humanized N901 antibody, with or without 1,2-naphthoquinone-4-sulfonic acid (25 micromolar, or 50 micromolar, or 100 micromolar), which was added to a cell pellet of 100 million CHO cells, and the resuspended cells were incubated at ambient temperature for 30 minutes, following which the cell debris were pelleted by centrifugation (16,000 g, 5 min). The supernatant from each sample was added to 50 microliter immobilized-Protein A beads (RepliGen) and rotated at ambient temperature for 3 hours, after which the supernatant was removed and the beads washed with PBS.
(§1) The thiol content of the immobilized antibody was determined by the addition of 0.6 ml of PBS containing 0.5 mM DTNB (Ellman's reagent) to the beads, rotation for about 10 minutes, centrifugation, and absorbance measurement of supernatant at 412 nm.
The effect of anthraquinone-2-sulfonic acid (AQS) on antibody-disulfide reduction was studied during co-incubation of anthraquinone-2-sulfonic acid with antibody and damaged CHO lysate. Each sample contained pre-mixed 1 ml RIPA buffer (50 mM Tris-HCl, pH 7.4, 1% NP-40, 0.5% sodium deoxycholate, 0.1% sodium dodecylsulfate) with 1 mg humanized N901 antibody, with or without 0.2 mM anthraquinone-2-sulfonic acid (AQS), which was added to a cell pellet of 100 million CHO cells, and the resuspended cells were incubated at ambient temperature for 30 minutes, following which the cell debris were pelleted by centrifugation (16,000 g, 5 min). The thiol concentration in CHO cell lysate was 1 mM (Ellman's assay).
as §1, with “The supernatant from each sample was added to 50 microliter immobilized-Protein A beads (RepliGen) and rotated at ambient temperature for 3 hours, after which the supernatant was removed and the beads washed with PBS. The” for “The”
In another experiment, 1 mg huN901 antibody was incubated with CHO lysate, with or without 0.4 mM anthraquinone-2-sulfonic acid for 4 hours. The mixture was then analyzed for thiol/antibody as above.
The thiol concentration in CHO cell lysate was 1 mM (Ellman's assay).
The supernatant from each sample was added to 50 microliter immobilized-Protein A beads (RepliGen) and rotated at ambient temperature for 3 hours, after which the supernatant was removed and the beads washed with PBS. […]

[3] = test system: Calu3 human lung cancer cells; experiment: Cell viability, microscopic observation and Cell Titer Glo ATP assay; format: cell-based; conditions: 1 day
Procedure: The effect of incubating cells with anthraquinone-2-sulfonic acid (AQS) was tested using Calu3 human lung cancer cells. Effects on cell viability were assayed by microscopic observation of cells and by ATP-based viability assay using Cell Titer Glo reagent (Promega).

humanized FOLR1 IgG1 = experiment: Antibody fragmentation in HCCF treated with 20% (v/v) microfluidized CHO cells, non-reducing SDS-Protein Lab Chip; format: biochemical; conditions: 1 mM of each additive, 6 h; control 78% fragmentation
CHO cells = experiment: Viability of CHO cells after 1 day treatment; conditions: antibody-producing CHO cells, about two weeks continuous culture, control 63.8%
Humanized IgG2 antibody = experiment: IgG2 disulfide reduction by CHO cell lysate, DTNB thiol assay; format: biochemical; conditions: 1 mM agent, 40% v/v CHO cell lysate, 5 hours, pH 7; control 0.84
Procedure: Humanized IgG2 antibody (1 mg/ml; final concentration) was incubated with 40% v/v CHO cell lysate (˜40 million cells lysed with 0.4 ml RIPA buffer and debris removed by centrifugation) in a total volume of 1 ml. The control sample was adjusted to pH 7 and rotated at RT for 5 hours with 100 μl protein A beads. […] After the incubation time of 5 hours, the supernatant was removed and the beads were washed three times with 10 ml PBS before the thiol amount of the immobilized antibody was analyzed by adding 0.5 mM DTNB and measuring the absorbance at 412 nm.

humanized IgG4 = experiment: IgG4 disulfide reduction by CHO cell lysate, DTNB thiol assay; format: biochemical; conditions: 1 mM agent, 30% v/v CHO cell lysate, 4 hours, pH 7; control 7.7
Procedure: All samples were adjusted to pH 7 and incubated with 200 μl protein A beads for 4 hours while rotating at room temperature. After the incubation the supernatant was removed and beads washed three times with 10 ml PBS. To analyze the thiol content of the protein A-bound IgG4 antibody, the beads were incubated with a 0.5 mM DTNB solution for 5 min and the absorbance of the supernatant measured at 412 nm.

physchem = conditions: thermodynamic from solid
M9346A antibody [4] = format: biochemical; conditions: 1 mM additive, conditions where control without additive was 100% fragmented
Procedure: Antibody reduction was induced in a biological assay by adding cell lysate to purified monoclonal antibody. […]. Increasing amounts of CHO cell lysate were added to mimic different percentages of cell lysis, ranging from […]. Fresh NADPH was added to a concentration of 400 μM. The mixtures were incubated in a water bath at 37° C. for 1 h. Free thiols were alkylated by addition of 10% (v/v) of 50 mM N-ethyl-maleimide (NEM) solution. Samples were analyzed by non-reduced sodium dodecyl sulfate denaturing capillary electrophoresis (NR-CE-SDS).
To test the capacity for protection further, the stringency of the assay was increased. […].

[5] = Redox potential of antibody solution with media additive over a range of DTT concentrations; format: physicochemical; conditions: 1 mM additive, DTT 0.34 μM to 170 μM, 37° C., 1 h
M9346A antibody [6] = format: biochemical

SMILES: O=C1c2ccccc2C(=O)c2cc(S(=O)(=O)O)ccc21 [AQS, anthraquinone-2-sulfonic acid]
percent decrease in thiol versus No AQS control ([1]; 1 hour): 2% | percent decrease in thiol versus No AQS control ([1]; 2 hours): 8% | percent decrease in thiol versus No AQS control ([1]; 3 hours): 12% | percent decrease in thiol versus No AQS control ([1]; 4 hours): 20% | thiol per antibody ([2]; 2 mM agent, 3 hours, pH 7, lysate of ~40 million cells, control 0.95): about 0.18 thiol per antibody | thiol/antibody (humanized N901 antibody; 0.2 mM agent, 3 hours, lysate thiol 1 mM, control 4.86): 2.46 thiol/antibody | decrease in antibody-disulfide reduction (humanized N901 antibody; 0.2 mM agent, 3 hours): 49% | thiol/antibody (humanized N901 antibody; 0.4 mM agent alone, 4 hours, control 4.34): 1.65 thiol/antibody | decrease in antibody-disulfide reduction (humanized N901 antibody; 0.4 mM agent, 4 hours): 62% | Cell Titer Glo luminescence relative to control cells ([3]; 0.25 mM): 100% | Cell Titer Glo luminescence relative to control cells ([3]; 0.5 mM): 85% | cytotoxic effects by microscopic observation ([3]; 0.25 and 0.5 mM): no visible cytotoxic effects | fragmentation compared with no additive control (humanized FOLR1 IgG1): much lower fragmentations | viability count using trypan blue (CHO cells; 0.25 mM): 66.2% | viability count using trypan blue (CHO cells; 0.5 mM): 64.8% | viability count using trypan blue (CHO cells; 0.75 mM): 61.7%

SMILES: CC(C)(C)OC(=O)[C@@H](N)CSSC[C@H](N)C(=O)OC(C)(C)C [CDBE, L-cystine bis(t-butyl ester)]
decrease in disulfide reduction compared to the control ([2]; 0.25 mM agent, another experiment): about 78% | decrease in disulfide reduction compared to the control ([2]; 0.5 mM agent, 2 hours): about 93% | thiol per antibody ([2]; 0.5 mM agent, 2 hours, control 2.26): about 0.16 thiol per antibody | decrease in disulfide reduction compared to the control ([2]; 1 mM agent, 2 hours): ~96% | thiol per antibody ([2]; 1 mM agent, 2 hours, control 2.26): ~0.10 thiol per antibody | decrease in disulfide reduction compared to the control ([2]; 2 mM agent, another experiment): ~98% | reduced thiols per antibody (Humanized IgG2 antibody): near-zero reduction | thiol groups per antibody (humanized IgG4): no reduced disulfides were detected

solubility (physchem; water): ≥ 500 mM
SMILES: CC(C)(C)OC(=O)[C@@H](N)CSSC[C@H](N)C(=O)OC(C)(C)C [L-cystine bis(t-butyl ester) dihydrochloride]

solubility (physchem; pH 7.1, aqueous buffer): < 5 mM
SMILES: Cl.Cl.N[C@@H](CSSC[C@H](N)C(=O)O)C(=O)O [L-cystine dihydrochloride, reference compound]
thiol per antibody ([2]; L-cystine derived from saturated L-cystine solution, 3 hours, pH 7, control 1.96): about 0.74 thiol per antibody

SMILES: O=S(=O)([O-])[O-].[Cu+2] [copper sulfate]
protection at increased assay stringency (M9346A antibody [4]): protective of disulfide reduction | modulation of redox potential [5]: constant redox potential across all DTT concentrations | intact antibody (M9346A antibody [6]): 100%

SMILES: [O]=[Cr](=[O])([O-])[O][Cr](=[O])(=[O])[O-] [dichromate, reference compound]
modulation of redox potential [5]: constant redox potential across all DTT concentrations | intact antibody (M9346A antibody [6]; 1 mM additive, 100 μM DTT, 37° C., 1 h, control 80%): 100%
